Measured values reported in patent US20250090498A1, “TREATMENT OF PRIMARY CTLA-4 CHECKPOINT RELATED IMMUNODEFICIENCIES” (ADIENNE PHARMA & BIOTECH SA, priority 2023, published 2025).

Key:
[1] = enteric microparticles; cited from earlier work
[2] = system: LLC cells; assay: Lewis lung carcinoma (LLC) model with anti-PD-1 antibody; type: in vivo, C57BL/6 mice
Protocol: For FIGS. 12A-12E, C57BL/6 mice were subcutaneously injected with B16 tumor cells and administered 100 μg anti-CTLA-4 mAb or isotype control intraperitoneally four times at 3-day intervals up to 16 days. 3-IAld was administered intragastrically every other day. Mice were evaluated for (FIG. 12A) tumor growth, (FIG. 12B) histology (periodic acid-Schiff staining), (FIG. 12C) immunohistochemistry for CD8+ and CD4+ tumor-infiltrating lymphocytes (TIL), (FIG. 12D) number of positive TIL per high-power field, HPF and (FIG. 12E) Cxcl9 and Perforin expression. (FIGS. 12F-12J) C57BL/6 mice were orthotopically injected with LLC cells and administered 200 μg anti-PD-1 mAb or isotype control intraperitoneally five times at 3-day intervals up to 18 days. 3-IAld was administered intragastrically every other day. Mice were evaluated for (FIG. 12F) % survival, (FIG. 12G) lung weight, (FIG. 12H) lung gross pathology, (FIGS. 12I, 12J) CD4+CD25+Foxp3+ cells. Photographs were taken with a high-resolution microscope, ×40 magnification (scale bars, 100 μm). Each in vivo experiment includes three mice per group (nine mice in each experiment). Data are represented as mean±SEM. One-way analysis of variance, Bonferroni post hoc test. *P<0.05, **P<0.01, ***P<0.001.
The potential application of 3-IAld requires that its immunoregulatory activity would not impinge the tumor immunosurveillance. To this purpose, the effect of 3-IAld was assessed in the anti-CTLA-4-responsive B16 melanoma model (Renga et al, 2022).

[3] = system: DSS-induced colitis; details: cited from earlier work
[4] = system: immune-mediated colitis; assay: immune-mediated colitis in NSG mice infused with hPBMCs and treated with anti-CTLA-4 mAb; type: in vivo
Protocol: Humanized immunodeficient NSG mice were injected with human peripheral blood mononuclear cells from healthy donors and treated with anti-CTLA-4 monoclonal antibody. NOD.Cg-Prkdcscid Il2rgtm1Wjl/SzJ (NSG) mice, 8-10 weeks old, were injected intraperitoneally with human peripheral blood mononuclear cells (107) freshly isolated from healthy donors and treated intraperitoneally with 100 μg of anti-CTLA-4 mAb or human IgG as antibody control at days 0, 4, 8, 12 and 16.
3-IAld (18 mg/kg) was administered intragastrically every other day starting the day of cell infusion. Mice were monitored daily for overall mortality and body weight loss and sacrificed on day 21.

[5] = 3-IAld 18 mg/kg intragastrically every other day, 21 days

In the case of `O=Cc1c[nH]c2ccccc12` [3-IAld, 1H-indole-3-carbaldehyde], the “inflammatory histopathology and barrier function” value [1] is given as “improved”, the “therapeutic efficacy of anti-PD-1 antibody” value ([2]; 3-IAld with 200 μg anti-PD-1 mAb) is given as “did not interfere” and the “ability of anti-PD-1 antibody to increase survival” value ([2]; 3-IAld with anti-PD-1 mAb) is given as “did not prevent”. For the same compound, the “ability of anti-PD-1 antibody to reduce the recruitment of Foxp3+CD25+ Treg cells in the lung” value ([2]; 3-IAld with anti-PD-1 mAb) was “did not prevent”, the “ability of anti-PD-1 antibody to improve gross pathology” value ([2]; 3-IAld with anti-PD-1 mAb, lung) was “did not prevent” and the “ability of anti-PD-1 antibody to decrease tumour growth” value ([2]; 3-IAld with anti-PD-1 mAb, lung weight) was “did not prevent”. The IL-22 production ([3]; intragastric administration, AhR-dependent manner) was “induced IL-22 production”, the “therapeutic efficacy in a murine model of dextran-induced colitis” value ([3]; mouse, in vivo) was “therapeutic efficacy” and the “immune-mediated colitis (overall)” value ([4]; 3-IAld 18 mg/kg) was “protects mice from immune-mediated colitis”. The survival [4, 5] was “increased”, the weight loss [4, 5] was “reduced” and the histology score ([4]; 3-IAld 18 mg/kg, colon, day 21) was “improved”. For the same compound, the inflammatory histopathology ([4]; 3-IAld 18 mg/kg, colon, day 21) was “improved”, the “barrier function (expression of ZO-1)” value ([4]; 3-IAld 18 mg/kg, day 21) was “restored” and the “inflammatory cytokine gene expression” value ([4]; 3-IAld 18 mg/kg, day 21) was “decreased”.
